The values that follow come from US5733917A, “Heterocyclic compound” (Taisho Pharmaceutical Co., Ltd., priority 1994, dated 1998).

The subject of data set [1] is serotonin 4 receptors. To be noted: stimulants of serotonin 4 receptors; Alimentary Pharmacology and Therapeutics, vol. 6, page 273, 1992; cited from earlier work.
The target of data set [2] is T1, serotonin 4 receptor (Cavia porcellus, UniProt O70528).
T1 construct: from tissue; host or cells: ileum longitudinal muscle strips of Hartley guinea pigs
T1 sequence (O70528 whole entry): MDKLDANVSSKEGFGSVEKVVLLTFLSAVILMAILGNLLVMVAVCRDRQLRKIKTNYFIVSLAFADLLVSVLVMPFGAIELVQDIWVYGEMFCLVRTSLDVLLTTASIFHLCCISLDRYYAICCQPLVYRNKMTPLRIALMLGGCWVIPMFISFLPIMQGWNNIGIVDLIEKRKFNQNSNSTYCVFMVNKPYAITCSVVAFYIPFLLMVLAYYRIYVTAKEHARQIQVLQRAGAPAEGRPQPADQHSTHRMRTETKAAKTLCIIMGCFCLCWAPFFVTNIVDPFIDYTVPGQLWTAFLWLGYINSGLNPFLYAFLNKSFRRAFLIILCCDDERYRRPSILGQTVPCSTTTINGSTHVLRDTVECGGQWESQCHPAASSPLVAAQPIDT
Nature of the data set: Stimulating action test on serotonin 4 receptor: twitch responses in electrically stimulated longitudinal muscle strips of guinea pig ileum. It counts as cell-based, guinea pig (Hartley). From the text:
Stimulating Action Test on Serotonin 4 Receptor Test Drugs
Test Drug 1: Compound 1 of the present invention
Test Drug 2: The compound described in Japanese Patent Kokai No. 3-197462 represented by the following formula: [drawing 5]
Test Drug 3: The compound described in Japanese Patent Kokai No. 4-226980 represented by the following formula: [drawing 6]
Twitch responses were examined in longitudinal muscle strips of guinea pig according to a modification of the method described in The Journal of Pharmacology and Experimental Therapeutics, vol. 252, page 1378, 1990.
From Hartley guinea pigs, a section of ileum 25 cm in length and proximal to the ileocecal junction was removed. The longitudinal muscle strips obtained from two segments of ileum about 4 cm each in length were used for this test. The longitudinal muscle strips were suspended in Kreb's solution at 32° to 34° C. and bubbled with 95% O2 and 5% CO2 under a load of about 0.8 g. The responses were recorded under an electrical stimulation of 0.2 Hz, 1 msec pulse duration, using force displacement transducers. The longitudinal muscle strips were allowed to stand at supramaximal voltage for about an hour, and thereby were stable. After it was confirmed that the twitch responses were enhanced by 10^-8 M 5-HT, each test drug was examined on its activity for twitch responses. The test was carried out by exposing the strips to cumulative additions of the test drug at least at 45 minute intervals.

Data set [3] has as its system gastrointestinal motor. Description: Action on gastrointestinal motor in dogs (strain gauge force transducers, motility index). Particulars: for Motility Index: dog, gastric motor after feeding. It counts as in vivo, Beagle dogs. Here is the method:
Action on Gastrointestinal Motor in Dogs
The test was carried out by a modification of the method described in Gastroenterologia Japonica, vol. 12, page 275, 1977.
Beagle dogs of both sexes weighing 9 to 15 kg were anesthetized with sodium pentobarbital and strain gauge force transducers were sutured on 5 portions, i.e. for determining antral, duodenum, jejunal, ileal and colonel motor responses. A cannula for administering a drug was mounted persistently into the jugular vein. After recovery of the surgery, motor responses of the dog under no-anesthesia without restriction at those portions on the gastrointestinal tract in both during a fasting period and after feeding were determined in the conscious […].
(§1) The compound of the present invention was administered after dissolving in saline aqueous solution.
The motor index is shown in terms of a proportion (%) of a mean value calculated for 15 minutes to a value prior to administration (0 minute). The value for 0 minute was made a mean value for 30 minutes prior to the administration.
Tables 2 and 3 show the activity of the compound of the present invention in doses of 0.3 mg/kg for intravenous route and 1 mg/kg for oral route, respectively, on the gastric motor action after feeding.

The subject of data set [4] is gastric emptying. Description: Action on gastric emptying in rats (clonidine-treated, residual rate of glass balls in stomach). To be noted: rat; for Residual rate in Stomach: relative to clonidine hydrochloride-treated animal. It counts as in vivo, Male wistar rats. The procedure:
Action on Gastric Emptying in Rats
The test was carried out by a modification of the method described in British Journal of Pharmacology, vol. 91, page 263, 1987.
Male wistar rats weighing 170 to 220 g were used after fasting for 24 hours.
Clonidine hydrochloride of 30 μg/kg was administered subcutaneously, and after 30 minutes the compound of the present invention was administered subcutaneously. After 30 minutes 1 ml of glass balls (500 mg/ml) was administered orally. After 30 minutes the glass balls remained in the stomach were recovered and weighed to determine the rate [residual rate in stomach (%)] to the residual amount in the stomach of the clonidine hydrochloride-treated animal.
as §1

Data set [5] is described as follows: Toxicity examination of mouse single administration (acute toxicity). Particulars: in vivo, single oral administration, read-out: LD value. The procedure: With respect to toxicity of Compound (1) represented by Formula (I) which is an effective ingredient of the pharmaceutical composition of the present invention, as a result of the toxicity examination of mouse single administration (acute toxicity), the LD value is more than 500 mg/kg by oral administration.

Where [6] appears, read: guinea pig ileum longitudinal muscle strips, electrical stimulation 0.2 Hz, 1 msec, cumulative additions at least at 45 minute intervals, read-out: ED50 (the source's name).

Read-outs that look alike come from different tables or passages of the source.

In the case of `COc1cc(N)c(Cl)cc1C(=O)NC1CCN(CCCOc2ccc(F)cc2)CC1OC` (centres unmarked) [Cisapride], in data set [1], the gastrointestinal motor functions entry was “accelerate gastrointestinal motor functions”.
Consider `NCCc1c[nH]c2ccc(O)cc12` [Compound 5-HT], for which the twitch responses result in data set [2] (10^-8 M 5-HT, confirmation before test drug) is recorded as “enhanced”.
`CC(C)n1c(=O)c(C(=O)O[C@H]2C[C@H]3CC[C@@H](C2)N3C)cc2ccccc21` [Compound (1), endo-(8-methyl-8-azabicyclo[3.2.1]oct-3-yl) 1-isopropyl-2(1H)-quinolone-3-carboxylate] yielded an EC50 in data set [2] of 21.3 nM. For the same compound, the “Motility Index” value in data set [3] (intravenous 0.3 mg/kg, 0 min (value prior to administration, = 100), N = 3) turned out to be 100%; in data set [3] (intravenous 0.3 mg/kg, 15 min, N = 3, p < 0.05), 247.8%; in data set [3] (intravenous 0.3 mg/kg, 30 min, N = 3, p < 0.01) it was 219.8%; in data set [3] (intravenous 0.3 mg/kg, 45 min, N = 3, p < 0.01), 178.8%; in data set [3] (intravenous 0.3 mg/kg, 60 min, N = 3, p < 0.01), 162.3%; in data set [3] (intravenous 0.3 mg/kg, 75 min, N = 3, p < 0.001), 181.0%. The “Motility Index” value in data set [3] (intravenous 0.3 mg/kg, 90 min, N = 3) is given as 166.7%; in data set [3] (intravenous 0.3 mg/kg, 105 min, N = 3) it was 150.1%; in data set [3] (intravenous 0.3 mg/kg, 120 min, N = 3) it was 123.5%; in data set [3] (oral 1 mg/kg, 0 min (value prior to administration, = 100), N = 3), 100%; in data set [3] (oral 1 mg/kg, 15 min, N = 3) it was 179.5%; in data set [3] (oral 1 mg/kg, 30 min, N = 3), 238.6%. For the same compound, the “Motility Index” value in data set [3] (oral 1 mg/kg, 45 min, N = 3) is 295.0%; in data set [3] (oral 1 mg/kg, 60 min, N = 3), 238.8%; in data set [3] (oral 1 mg/kg, 75 min, N = 3), 252.3%; in data set [3] (oral 1 mg/kg, 90 min, N = 3) it was 193.9%; in data set [3] (oral 1 mg/kg, 105 min, N = 3), 251.7%; in data set [3] (oral 1 mg/kg, 120 min, N = 3), 257.8%. Moreover, the “Motility Index” value in data set [3] (oral 1 mg/kg, 135 min, N = 3, p < 0.05) was determined as 220.6%; in data set [3] (oral 1 mg/kg, 150 min, N = 3), 158.1%; in data set [3] (oral 1 mg/kg, 165 min, N = 3) it was 201.9%; in data set [3] (oral 1 mg/kg, 180 min, N = 3, p < 0.05) it was 188.9%. The “motor action on the gastrointestinal tract” value in data set [3] (intravenous and oral administrations, both during the fasting period and after feeding, vehicle alone no influence) is recorded as “showed acceleration on the motor action on the gastrointestinal tract”. The “Residual rate in Stomach” value in data set [4] (subcutaneous 0.03 mg/kg, 5 cases) was 59.2%; in data set [4] (subcutaneous 0.1 mg/kg, 5 cases), 50.4%; in data set [4] (subcutaneous 0.3 mg/kg, 6 cases) it was 38.7%; in data set [4] (subcutaneous 1.0 mg/kg, 6 cases) it was 40.0%. Besides, the “action on gastric emptying” value in data set [4] (subcutaneous administration) is “inhibited dose-dependent accelerating action on gastric emptying”. For the same compound, the LD50 in data set [5] was over 500 mg/kg.
Regarding `CN1[C@@H]2CC[C@H]1C[C@@H](OC(=O)c1cc3ccccc3[nH]c1=O)C2` [Test Drug 2], in data set [2] (setting [6]), the EC50 was over 3000 nM.
On the same count and under the same terms, the figure for `CCCCn1c(=O)c(C(=O)N[C@H]2C[C@H]3CC[C@@H](C2)N3C)c(O)c2ccccc21` [Test Drug 3] is over 3000 nM.
As to `COc1cc(N)c(Cl)cc1C(=O)NC1CCN2CCCC1C2` (centres unmarked) [renzapride], in data set [1], the gastrointestinal motor functions entry is listed as “accelerate gastrointestinal motor functions”.
